Laboratory results: EP4696693A1, “HEXAHYDRO[1,4]OXAZINO[3,4-C]PYRIDO[2,1-F][1,2,4]TRIAZINE DEUTERATED DERIVATIVE, PHARMACEUTICAL COMPOSITION THEREOF, PREPARATION METHOD THEREFOR, AND ANTI-INFLUENZA USE THEREOF” (Changsha Jingyi Pharmaceutical Technology Co., Ltd, priority 2023, dated 2024)

Experiments:
[1] = test system: influenza B virus strain (B/Florida/78/2015); experiment: Cytopathic effect (CPE) assay in MDCK cells, influenza B; type: cell-based; settings: 100 TCID50, CPE assay, CCK-8, read-out: EC50 against the influenza B virus strain (B/Florida/78/2015)
[2] = Pharmacokinetics after oral gavage of MC suspension, plasma LC-MS/MS; set-up: species or system SD rats; settings: SD, rat, in vivo, 0.9 mg/kg
Procedure: This example investigated the pharmacokinetics profile of the compound of Formula I administered as a methylcellulose (MC) suspension by oral gavage in rats.
The drug concentration of baloxavir was determined using a validated LC-MS/MS analytical method. Plasma samples were precipitated with acetonitrile, and the supernatant was injected for analysis. A chromatographic column, Waters XBridge C8 2.5 µm 2.1×50 mm Column, was used, and a gradient elution was carried out using a mobile phase of 0.1% formic acid in water and acetonitrile (containing 0.1% formic acid), with a flow rate of 0.60 mL/min. Monitoring was carried out using an electrospray ionization (ESI) source in a positive ion mode with a multiple reaction monitoring (MRM) method. The linear range for baloxavir was 0.1000 to 100.0 ng/mL, with a lower limit of quantification of 0.1000 ng/mL; the linear range for baloxavir marboxil was 0.1000 to 5.000 ng/mL, with a lower limit of quantification of 0.1000 ng/mL; the linear range for the compound of Formula I was 0.1000 to 5.000 ng/mL, with a lower limit of quantification of 0.1000 ng/mL; the linear range for the T-3 compound was 0.1000 to 5.000 ng/mL, with a lower limit of quantification of 0.1000 ng/mL; and the linear range for the T-4 compound was 0.1000 to 5.000 ng/mL, with a lower limit of quantification of 0.1000 ng/mL.
This experiment used the marketed drug baloxavir marboxil and the analogous compounds T-3 and T-4 as references to investigate the differences in single-dose pharmacokinetics characteristics between the compound of Formula I and the above compounds. The dose groups were designed as follows: baloxavir marboxil group, with a medium dose (0.9 mg/kg, calculated as baloxavir), T-3 and T-4 compound groups, with a medium dose (0.9 mg/kg), and Compound of Formula I group, with a medium dose (0.9 mg/kg). Blood samples (approximately 0.2 mL) were collected via the orbital plexus before administration (0 h) and at 5 min, 15 min, 30 min, 1 h, 2 h, 4 h, 6 h, 8 h, 12 h, and 24 h after administration. Plasma was separated by centrifugation at 1700 g for 10 min, and plasma drug concentrations were determined by the LC-MS/MS method. Measured concentration values below 80% of the lower limit of quantification of the analyzed subject were considered not detected (counted as zero) or below the limit of quantification (counted as ND); values before the peak concentration Cmax were counted as zero, and values after the peak concentration were counted as ND. Pharmacokinetics parameters were calculated using Phoenix WinNonlin 8.0 software.
The main pharmacokinetics parameter experiment results are as follows: The primary pharmacokinetics parameters after the administration of different doses of a suspension of the compound of Formula I to SD rats by oral gavage are shown in Table 5 below.

H3N2 influenza A virus = experiment: In vivo pharmacodynamics, influenza A virus infection model (lung index, lung viral load); settings: H3N2-infected BALB/c mice, x ± s, n = 10; for Lung index: 6 mg/kg oral gavage once daily; for PCR viral load: lung tissue, 6 mg/kg
Procedure: (§1) In this example, the H3N2 influenza A virus and the IBV influenza B virus were used to intranasally infect BALB/c mice to establish an influenza A virus infection model and an influenza B virus infection model. After infection, the compound of Formula I was administered to the mice by oral gavage. Changes in lung index and lung viral load of the mice were observed. Oseltamivir phosphate granules, baloxavir marboxil, T-3 compound and T-4 compound were set as positive controls to evaluate the in vivo efficacy of the compound of Formula I against influenza viruses.
A total of 250 qualified SPF-grade BALB/c mice, weighing 11.9-15.1 g, half male and half female, were randomly divided into 7 groups based on genders and body weights: normal control group, model control group, oseltamivir phosphate granules group (6 mg/kg), baloxavir marboxil group (6 mg/kg), T-3 compound group (6 mg/kg), T-4 compound group (6 mg/kg) and Compound of Formula I group (6 mg/kg). The normal control group, oseltamivir phosphate granules group, baloxavir marboxil group, T-3 compound group (6 mg/kg) and T-4 compound group each included 30 mice, and the model control group and the Compound of Formula I group each included 50 mice. Two hours before the first administration, all mice were lightly anesthetized with ether. Except for the normal control group, all mice were intranasally inoculated with the stock solution of H3N2 influenza A virus (viral titer: 6 log2) at 100 µL per mouse. The normal control group was administrated with an equal volume of phosphate-buffered solution intranasally. Each group of mice was administered the corresponding concentration of the drug solution at 20 mL/kg, once daily for 5 consecutive days. The normal control group and the model control group were administered an equal volume of 0.5% methylcellulose (0.5% MC) by oral gavage. The body weights of the mice in each group were recorded daily. At 24 h and 48 h after administration, 10 mice (half male and half female) were randomly selected from each group and euthanized by cervical dislocation, and their lungs were dissected and weighed to calculate the lung index. The influenza A viral load in the lung tissue of the mice was detected using a real-time quantitative polymerase chain reaction (PCR) method. In the model control group and the Compound of Formula I group, 10 mice were euthanized at 12 h, 24 h, 48 h, 72 h, and 5 days after administration. The left lung was collected to assess the H3N2 influenza A viral load. […]

IBV influenza B virus = experiment: In vivo pharmacodynamics, influenza B virus infection model (lung index, lung viral load); set-up: PCR relative quantification: unit not given here; settings: IBV-infected BALB/c mice, x ± s, n = 10; for Lung index: 6 mg/kg oral gavage once daily; for PCR relative quantification: lung tissue, dose printed 18 mg/kg
Procedure: as §1
A total of 210 qualified SPF-grade BALB/c mice, weighing 13.0-15.4 g, half male and half female, were randomly divided into 7 groups based on genders and body weights: normal control group, model control group, oseltamivir phosphate granules group (6 mg/kg), baloxavir marboxil group (6 mg/kg), T-3 compound group (6 mg/kg), T-4 compound group (6 mg/kg) and Compound of Formula I group (6 mg/kg), 30 mice per group. Two hours before the first administration, all mice were lightly anesthetized with ether. Except for the normal control group, all mice were intranasally inoculated with the stock solution of IBV influenza B virus (viral titer: 8 log2) at 100 µL per mouse. The normal control group was administrated with an equal volume of phosphate-buffered solution intranasally. Each group of mice was administered the corresponding concentration of the drug solution at 20 mL/kg by oral gavage, once daily for 5 consecutive days. The normal control group and the model control group were administered an equal volume of 0.5% MC. The body weights of the mice in each group were recorded daily. At 24 h and 48 h after administration, 10 mice (half male and half female) were randomly selected from each group and euthanized by cervical dislocation, and their lungs were dissected and weighed to calculate the lung index. The influenza B viral load in the lung tissue of the mice was detected using a relative fluorescence quantitative PCR method. […]

[3] = In vitro cytotoxicity, Cell Counting Kit (CCK-8); type: cell-based, canine; settings: dog; MDCK cells, 48 h incubation, CCK-8, OD450nm; read-out: IC50 (cytotoxic effects on MDCK cells)
Procedure: The in vitro cytotoxic effects of the test compound (the compound of Formula I) and the positive control drugs (baloxavir marboxil, baloxavir, T-3 compound and T-4 compound) on Madin-Darby canine kidney (MDCK) cells were determined using a Cell Counting Kit (CCK-8). MDCK cells were seeded in 96-well plates and cultured overnight. After different concentrations of the drugs were added, the cells were incubated for 48 h. CCK-8 was then added, and the cells were incubated in the dark for […]. The optical density (OD) at 450 nm (OD450nm) values were measured using a microplate reader, and the half-maximal inhibitory concentration (IC50) of the drugs on the cells was calculated.

[4] = test system: influenza A virus subtype H3N2 strain (A/California/2/2014); experiment: Cytopathic effect (CPE) assay in MDCK cells, influenza A; type: cell-based; settings: for EC50: Influenza A virus, H3N2, MDCK cells, 100 TCID50, CPE assay, CCK-8, read-out: EC50 against the influenza A virus subtype H3N2 strain (A/California/2/2014)

| SMILES | EC50 [1] | AUC 0-t [2] | AUC 0-∞ [2] | Cmax [2] | Tmax [2] | Lung index (H3N2 influenza A virus; 24 h after administration) | Lung index (H3N2 influenza A virus; 48 h after administration) | PCR viral load (H3N2 influenza A virus; 24 h after administration) | PCR viral load (H3N2 influenza A virus; 48 h after administration) | Lung index (IBV influenza B virus; 24 h after administration) | Lung index (IBV influenza B virus; 48 h after administration) | PCR relative quantification (IBV influenza B virus; 24 h after administration) | PCR relative quantification (IBV influenza B virus; 48 h after administration) | IC50 at 48 h [3] | EC50 [4] | protection against influenza virus-induced cell damage ([4]; concentration of 250 nM, influenza virus, strain not specified) |
| --- | --- | --- | --- | --- | --- | --- | --- | --- | --- | --- | --- | --- | --- | --- | --- | --- |
| [2H]C([2H])([2H])C([2H])([2H])OC(=O)OCOc1c2n(ccc1=O)N([C@@H]1c3ccccc3SCc3c1ccc(F)c3F)[C@@H]1COCCN1C2=O [Compound of Formula I, [[(12aR)-12-[(11S)-7,8-difluoro-6,11-dihydrodibenzo[b,e]thiepin-11-yl]-6,8-dioxo-3,4,6,8,12,12 a-hexahydro-1H-[1,4]oxazino[3,4-c]pyrido[2,1-f][1,2,4]triazin-7-yl]oxy]methyl (ethyl-d5) carbonate] | 8.15 nM | 203.1047 ± 21.4237 (10.55%) ng·h/mL | 207.7670 ± 25.0910 (12.08%) ng·h/mL | 31.7780 ± 2.4334 (7.66%) ng/mL | 1.0000 (0.500, 2.000) h | 8.67 ± 0.51^×× mg/g | 9.00 ± 0.57^× mg/g | 1308927 ± 1042821^×× copies | 193017 ± 192655^×× copies | 12.01 ± 1.09 mg/g | 9.79 ± 0.90^×× mg/g | 1416.57 ± 1122.12 | 1206.66 ± 1034.87 | 17400 nM | 5.02 nM | significant protection |
| COC(=O)OCOc1c2n(ccc1=O)N([C@@H]1c3ccccc3SCc3c1ccc(F)c3F)[C@@H]1COCCN1C2=O [baloxavir marboxil] | 15.4 nM | 157.8227 ± 56.5111 (35.81%) ng·h/mL | 160.9111 ± 57.8613 (35.96%) ng·h/mL | 23.1900 ± 7.9729 (34.38%) ng/mL | 1.0000 (0.250, 2.000) h | 9.53 ± 0.80 mg/g | 9.11 ± 0.96 mg/g | 1919953 ± 784647^×× copies | 320599 ± 202529 copies | 11.64 ± 1.06 mg/g | 11.45 ± 0.66^× mg/g |  |  | 11600 nM | 13.4 nM |  |
| O=C1c2c(O)c(=O)ccn2N([C@@H]2c3ccccc3SCc3c2ccc(F)c3F)[C@@H]2COCCN12 [baloxavir] | 2.06 nM |  |  |  |  |  |  |  |  |  |  |  |  | 10400 nM | 1.31 nM |  |
